Legend:
NFATc1 [1] = assay: RANKL-induced NFATc1 expression in mouse OCPs (immunoblot, qPCR); type: cell-based
Procedure: (A and B) BMDMs from WT and FICDtg^M mice were cultured with RANKL for 24 hours. Immunoblot of whole cell lysates with phopho-p70S6K and phopho-4E-BP1 antibodies. HA-tagged FICDs were detected by HA-antibody. α-tubulin or P38 was used as a control. (C) BMDMs from female wild type LysM cre mice (WT) or RAPTORf/f-LysM cre mice (Raptor cKO) were cultured with M-CSF for 4 days and were stimulated with RANKL for the indicated days. Immunoblot of whole cell lysates with anti-Raptor, NFATc1, or α-tubulin antibodies. (D-F) BMDMs from WT mice were treated with CPG57380 at the indicated doses and then cultured with RANKL for one day. (D) Immunoblot of whole lysate with anti-NFATc1 antibody. α-tubulin was used as a control. […] The intensity of NFATc1 bands in RANKL treatment conditions (control) was set as 100%. (n=4) (E) Expression mRNA level of NFATc1. […]
(§1) Whole cell extracts were prepared by lysis in buffer containing 1× Lamin sample buffer (Bio-rad) and 2-Mercaptoethanol (Sigma) or RIPA buffer (Sigma). […] The protein concentration of nuclear extracts was quantitated using the Bradford assay (Bio-Rad; 5000001). For immunoblot, proteins were separated on 7.5 or 10% SDS-PAGE gels, transferred to polyvinylidene difluoride membranes (PVDF, Millipore; ISEQ00010), and detected by antibodies as listed in the figure legends.

BMDM cells = assay: Mouse osteoclastogenesis assay in BMDMs (TRAP-positive multinuclear cells); type: cell-based
Procedure: (§2) (a and b) BMDMs from WT and FICDtg^M mice was stimulated with RANKL (50 ng/ml) at the indicated time. (a) RT-qPCR of Nfatc1 mRNA normalized relative to Hprt mRNA. (b) Immunoblot with anti NFATc1, HA, or α-tubulin antibodies. (c and d) BMDMs from Csf1r^f/+ Mx1-Cre mice were transduced by lentiviruses encoding FMS^wt, or FMS^mut and then cultured with M-CSF and RANKL. (c) Immunoblot of whole lysate with anti-NFATc1 antibody. α-tubulin was used as a control. […] The intensity of NFATc1 in FMS^mut was set as 100%. (d) Expression mRNA level of NFATc1. (e) Immunoblot of whole cell lysates with phospho-eIF4E antibodies. HA-tagged FICD was detected by HA-antibody. α-tubulin was used as a control. […] (f and g) Human CD14+ cells were treated with CGP57380 at the indicated doses for one hour and cultured with RANKL for one day. […] (g) Nfatc1 mRNA expression was measured by qPCR relative to HPRT. A DMSO-treated RANKL condition was set as 100%. (h) Osteoclastogenesis assay. […]
(A and B) BMDMs from WT and FICDtg^M mice were cultured with RANKL for 24 hours. […] HA-tagged FICDs were detected by HA-antibody. α-tubulin or P38 was used as a control. […]
For human osteoclastogenesis assays, cells were added to 96 well plates in triplicate at a seeding density of 5×10^4 cells per well. […] Multinucleated (greater than 3 nuclei), TRAP-positive osteoclasts were counted in triplicate wells. […]

NFATc1 [2] = assay: RANKL-induced NFATc1 expression in human OCPs (immunoblot, qPCR); type: cell-based
Procedure: as §2, with “100%.” for “100%. (h) Osteoclastogenesis assay.”
as §1

[3] = tested on: BMDMs from WT and FICDtg^M mice; assay: Cell viability assay in BMDMs; type: cell-based, mouse; details: CGP57380 at the indicated doses for one day
Procedure: (a and b) BMDMs from WT and FICDtg^M mice was stimulated with RANKL (50 ng/ml) at the indicated time. (a) RT-qPCR of Nfatc1 mRNA normalized relative to Hprt mRNA. (b) Immunoblot with anti NFATc1, HA, or α-tubulin antibodies. (c and d) BMDMs from Csf1r^f/+ Mx1-Cre mice were transduced by lentiviruses encoding FMS^wt, or FMS^mut and then cultured with M-CSF and RANKL. (c) Immunoblot of whole lysate with anti-NFATc1 antibody. α-tubulin was used as a control. […] The intensity of NFATc1 in FMS^mut was set as 100%. (d) Expression mRNA level of NFATc1. (e) Immunoblot of whole cell lysates with phospho-eIF4E antibodies. HA-tagged FICD was detected by HA-antibody. α-tubulin was used as a control. […] (f and g) Human CD14+ cells were treated with CGP57380 at the indicated doses for one hour and cultured with RANKL for one day. […] (g) Nfatc1 mRNA expression was measured by qPCR relative to HPRT. A DMSO-treated RANKL condition was set as 100%. (h) Osteoclastogenesis assay. BMDMs from WT and FICDtg^M mice were treated with CPG57380 at the indicated doses and then cultured with RANKL for three days. […] Scale bar: 100 μm. (i) Cell viability assay. BMDMs WT and FICDtg^M mice was stimulated with CPG57380 at the indicated doses for one day. (j-n) K/BxN serum transfer induced arthritis model. 9-week old male C57BL/6J mice were received K/BxN serum on day 0 and day 2. […]

osteoclastogenesis = details: inhibiting proteosomal degradation; cited from earlier work
[4] = CGP57380, RANKL for one day, qPCR

## Nc1ncnc2n[nH]c(Nc3ccc(F)cc3)c12 [CGP57380]
NFATc1 [1]; [4]
  Nfatc1 mRNA expression: marginally changed
NFATc1 [1]; CGP57380, then RANKL for one day
  RANKL-induced NFATc1 protein expression: suppressed RANKL-induced NFATc1 protein expression in a dose-dependent manner
BMDM cells; BMDMs from FICDtg^M mice, RANKL for three days
  enhanced osteoclastogenesis in FICDtg^M cells: inhibited the enhanced osteoclastogenesis in FICDtg^M cells to become comparable to osteoclasts in WT cells
BMDM cells; BMDMs from WT mice, RANKL for 3 days
  osteoclast differentiation: suppressed osteoclast differentiation in a dose-dependent manner
NFATc1 [2]; [4]
  Nfatc1 mRNA expression: marginally changed
NFATc1 [2]; CGP57380 one hour, then RANKL for one day
  RANKL-induced NFATc1 protein expression: suppressed RANKL-induced NFATc1 protein expression in a dose-dependent manner
[3]
  cell viability: minimal effect

## CC(C)C[C@H](NC(=O)[C@H](Cc1ccccc1)NC(=O)c1cnccn1)B(O)O [bortezomib]
osteoclastogenesis
  osteoclastogenesis: suppresses osteoclastogenesis
